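Method: 48-hour compound exposure of cells in 96-well plates, five concentrations, linear interpolation of endpoints. Definition used: TGI = concentration required for complete inhibition of growth.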
Columns and labels:
Experiment in all cases: inhibition of tumour cell growth, NCI panel, 48 h
786-0 renal = tested on: 786-0 renal
A549 NSCLC = tested on: A549 NSCLC
ACHN renal = tested on: ACHN renal
BT-549 breast = tested on: BT-549 breast
CAKI-1 renal = tested on: CAKI-1 renal
CCRF-CEM leukemia = tested on: CCRF-CEM leukemia
COLO 205 colon = tested on: COLO 205 colon
DU-145 prostate = tested on: DU-145 prostate
EKVX NSCLC = tested on: EKVX NSCLC
HCC-2998 colon = tested on: HCC-2998 colon
HCT-116 colon = tested on: HCT-116 colon
HCT-15 colon = tested on: HCT-15 colon
HL-60(TB) leukemia = tested on: HL-60(TB) leukemia
HOP-62 NSCLC = tested on: HOP-62 NSCLC
HOP-92 NSCLC = tested on: HOP-92 NSCLC
HS 578T breast = tested on: HS 578T breast
HT29 colon = tested on: HT29 colon
IGROV1 ovarian = tested on: IGROV1 ovarian
K-562 leukemia = tested on: K-562 leukemia
KM12 colon = tested on: KM12 colon
LOX IMVI melanoma = tested on: LOX IMVI melanoma
M14 melanoma = tested on: M14 melanoma
MALME-3M melanoma = tested on: MALME-3M melanoma
MCF7 breast = tested on: MCF7 breast
MDA-MB-231 breast = tested on: MDA-MB-231 breast
MDA-MB-435 = tested on: MDA-MB-435
MDA-N = tested on: MDA-N
MOLT-4 leukemia = tested on: MOLT-4 leukemia
NCI-H226 lung = tested on: NCI-H226 lung
NCI-H23 lung = tested on: NCI-H23 lung
NCI-H460 lung = tested on: NCI-H460 lung
NCI-H522 lung = tested on: NCI-H522 lung
NCI/ADR-RES ovarian = tested on: NCI/ADR-RES ovarian
OVCAR-3 ovarian = tested on: OVCAR-3 ovarian
OVCAR-4 ovarian = tested on: OVCAR-4 ovarian
OVCAR-5 ovarian = tested on: OVCAR-5 ovarian
OVCAR-8 ovarian = tested on: OVCAR-8 ovarian
PC-3 prostate = tested on: PC-3 prostate
RPMI-8226 leukemia = tested on: RPMI-8226 leukemia
RXF 393 renal = tested on: RXF 393 renal
SF-268 CNS = tested on: SF-268 CNS
SF-295 CNS = tested on: SF-295 CNS
SF-539 CNS = tested on: SF-539 CNS
SK-MEL-2 melanoma = tested on: SK-MEL-2 melanoma
SK-MEL-28 melanoma = tested on: SK-MEL-28 melanoma
SK-MEL-5 melanoma = tested on: SK-MEL-5 melanoma
SK-OV-3 ovarian = tested on: SK-OV-3 ovarian
SNB-19 CNS = tested on: SNB-19 CNS
SNB-75 CNS = tested on: SNB-75 CNS
SR leukemia = tested on: SR leukemia
SW-620 colon = tested on: SW-620 colon
TK-10 renal = tested on: TK-10 renal
U251 CNS = tested on: U251 CNS
UACC-257 melanoma = tested on: UACC-257 melanoma
UACC-62 melanoma = tested on: UACC-62 melanoma
UO-31 renal = tested on: UO-31 renal
A498 renal = tested on: A498 renal
SN12C renal = tested on: SN12C renal

SMILES: CCOC(=O)Cn1c(=O)c2cc(C)cc3c(Cl)nc4c(OC)c(OC)cc1c4c32
- TGI (786-0 renal): > 100 µM
- TGI (A549 NSCLC): > 100 µM
- TGI (ACHN renal): > 100 µM
- TGI (BT-549 breast): > 100 µM
- TGI (CAKI-1 renal): > 100 µM
- TGI (CCRF-CEM leukemia): > 100 µM
- TGI (COLO 205 colon): > 100 µM
- TGI (DU-145 prostate): > 100 µM
- TGI (EKVX NSCLC): > 100 µM
- TGI (HCC-2998 colon): > 100 µM
- TGI (HCT-116 colon): > 100 µM
- TGI (HCT-15 colon): > 100 µM
- TGI (HL-60(TB) leukemia): > 100 µM
- TGI (HOP-62 NSCLC): > 100 µM
- TGI (HOP-92 NSCLC): > 100 µM
- TGI (HS 578T breast): 74.7 µM
- TGI (HT29 colon): > 100 µM
- TGI (IGROV1 ovarian): > 100 µM
- TGI (K-562 leukemia): > 100 µM
- TGI (KM12 colon): > 100 µM
- TGI (LOX IMVI melanoma): > 100 µM
- TGI (M14 melanoma): > 100 µM
- TGI (MALME-3M melanoma): > 100 µM
- TGI (MCF7 breast): > 100 µM
- TGI (MDA-MB-231 breast): > 100 µM
- TGI (MDA-MB-435): > 100 µM
- TGI (MDA-N): > 100 µM
- TGI (MOLT-4 leukemia): > 100 µM
- TGI (NCI-H226 lung): > 100 µM
- TGI (NCI-H23 lung): > 100 µM
- TGI (NCI-H460 lung): > 100 µM
- TGI (NCI-H522 lung): > 100 µM
- TGI (NCI/ADR-RES ovarian): > 100 µM
- TGI (OVCAR-3 ovarian): > 100 µM
- TGI (OVCAR-4 ovarian): > 100 µM
- TGI (OVCAR-5 ovarian): > 100 µM
- TGI (OVCAR-8 ovarian): > 100 µM
- TGI (PC-3 prostate): > 100 µM
- TGI (RPMI-8226 leukemia): > 100 µM
- TGI (RXF 393 renal): > 100 µM
- TGI (SF-268 CNS): > 100 µM
- TGI (SF-295 CNS): > 100 µM
- TGI (SF-539 CNS): > 100 µM
- TGI (SK-MEL-2 melanoma): > 100 µM
- TGI (SK-MEL-28 melanoma): > 100 µM
- TGI (SK-MEL-5 melanoma): > 100 µM
- TGI (SK-OV-3 ovarian): > 100 µM
- TGI (SNB-19 CNS): > 100 µM
- TGI (SNB-75 CNS): > 100 µM
- TGI (SR leukemia): > 100 µM
- TGI (SW-620 colon): > 100 µM
- TGI (TK-10 renal): > 100 µM
- TGI (U251 CNS): > 100 µM
- TGI (UACC-257 melanoma): > 100 µM
- TGI (UACC-62 melanoma): > 100 µM
- TGI (UO-31 renal): > 100 µM

SMILES: Nc1c(Cl)ncnc1NCC1(CO)CCC1
- TGI (786-0 renal): > 100 µM
- TGI (A498 renal): > 100 µM
- TGI (A549 NSCLC): > 100 µM
- TGI (ACHN renal): > 100 µM
- TGI (BT-549 breast): > 100 µM
- TGI (CCRF-CEM leukemia): > 100 µM
- TGI (COLO 205 colon): > 100 µM
- TGI (DU-145 prostate): > 100 µM
- TGI (EKVX NSCLC): > 100 µM
- TGI (HCT-116 colon): > 100 µM
- TGI (HCT-15 colon): > 100 µM
- TGI (HL-60(TB) leukemia): > 100 µM
- TGI (HOP-62 NSCLC): > 100 µM
- TGI (HOP-92 NSCLC): > 100 µM
- TGI (HS 578T breast): > 100 µM
- TGI (HT29 colon): > 100 µM
- TGI (IGROV1 ovarian): > 100 µM
- TGI (K-562 leukemia): > 100 µM
- TGI (KM12 colon): > 100 µM
- TGI (LOX IMVI melanoma): > 100 µM
- TGI (MALME-3M melanoma): > 100 µM
- TGI (MCF7 breast): > 100 µM
- TGI (MDA-MB-231 breast): > 100 µM
- TGI (MDA-MB-435): > 100 µM
- TGI (MDA-N): > 100 µM
- TGI (MOLT-4 leukemia): > 100 µM
- TGI (NCI-H226 lung): > 100 µM
- TGI (NCI-H23 lung): > 100 µM
- TGI (NCI-H460 lung): > 100 µM
- TGI (NCI-H522 lung): > 100 µM
- TGI (NCI/ADR-RES ovarian): > 100 µM
- TGI (OVCAR-3 ovarian): > 100 µM
- TGI (OVCAR-4 ovarian): > 100 µM
- TGI (OVCAR-5 ovarian): > 100 µM
- TGI (OVCAR-8 ovarian): > 100 µM
- TGI (PC-3 prostate): > 100 µM
- TGI (RPMI-8226 leukemia): > 100 µM
- TGI (SF-268 CNS): > 100 µM
- TGI (SF-295 CNS): > 100 µM
- TGI (SF-539 CNS): > 100 µM
- TGI (SK-MEL-2 melanoma): > 100 µM
- TGI (SK-MEL-28 melanoma): > 100 µM
- TGI (SK-MEL-5 melanoma): > 100 µM
- TGI (SN12C renal): > 100 µM
- TGI (SNB-75 CNS): > 100 µM
- TGI (SR leukemia): > 100 µM
- TGI (SW-620 colon): > 100 µM
- TGI (TK-10 renal): > 100 µM
- TGI (U251 CNS): > 100 µM
- TGI (UACC-257 melanoma): > 100 µM
- TGI (UO-31 renal): > 100 µM

From PubChem BioAssay (NCI)
